{"source": "ChEMBL document CHEMBL1124763", "about": "“Nucleoside conjugates. 11. Synthesis and antitumor activity of 1-beta-D-arabinofuranosylcytosine and cytidine conjugates of thioether lipids” (1990)", "key": {"Mus musculus [1]": {"test_system": "Mus musculus", "assay": "Range of survival days for antitumor activity against Ip implanted L1210 / 0 lymphoid leukemia in mice at a dose of 200 mg/kg per day after treatment 1; range is 4-8", "type": "functional", "conditions": "route intraperitoneal"}, "Mus musculus [2]": {"test_system": "Mus musculus", "assay": "Increase of life span was determined against Ip implanted L1210 / 0 lymphoid leukemia in mice at a dose of 200 mg/kg per day after treatment 1;8/7.5", "type": "functional", "conditions": "L1210/0, ip, route intraperitoneal"}, "Mus musculus [3]": {"test_system": "Mus musculus", "assay": "Range of survival days for antitumor activity against Ip implanted L1210 / ara-C lymphoid leukemia in mice at a dose of 300 mg/kg per day; range is 8-9", "type": "functional", "conditions": "route intraperitoneal"}, "Mus musculus [4]": {"test_system": "Mus musculus", "assay": "Increase of life span was determined against Ip implanted L1210 / ara-C lymphoid leukemia in mice at a dose of 300 mg/kg per day", "type": "functional", "conditions": "route intraperitoneal"}, "Mus musculus [5]": {"test_system": "Mus musculus", "assay": "Survival time treated / survival time (T/C) for antitumor activity against Ip implanted L1210 / 0 lymphoid leukemia in mice at a dose of 200 mg/kg per day after treatment 1", "type": "functional", "conditions": "route intraperitoneal"}, "Mus musculus [6]": {"test_system": "Mus musculus", "assay": "Survival time treated/survival time tested (T/C) for antitumor activity against Ip implanted L1210 / ara-C lymphoid leukemia in mice at a dose of 300 mg/kg per day;8/9", "type": "functional", "conditions": "route intraperitoneal"}, "Mus musculus [7]": {"test_system": "Mus musculus", "assay": "Increase of life span was determined against Ip implanted L1210 / 0 lymphoid leukemia in mice at a dose of 200 mg/kg per day after treatment 1", "type": "functional", "conditions": "L1210/0, ip, route intraperitoneal"}, "Mus musculus [8]": {"test_system": "Mus musculus", "assay": "Range of survival days for antitumor activity against Ip implanted L1210 / 0 lymphoid leukemia in mice at a dose of 200 mg/kg per day after treatment 1", "type": "functional", "conditions": "route intraperitoneal"}, "Mus musculus [9]": {"test_system": "Mus musculus", "assay": "Survival time treated / survival time (T/C) for antitumor activity against Ip implanted L1210 / 0 lymphoid leukemia in mice at a dose of 200 mg/kg per day after treatment 1;6/7", "type": "functional", "conditions": "route intraperitoneal"}, "Mus musculus [10]": {"test_system": "Mus musculus", "assay": "Increase of life span was determined against Ip implanted L1210 / 0 lymphoid leukemia in mice at a dose of 100 mg/kg per day after treatment 1", "type": "functional", "conditions": "L1210/0, ip, route intraperitoneal"}, "Mus musculus [11]": {"test_system": "Mus musculus", "assay": "Survival time treated / survival time (T/C) for antitumor activity against Ip implanted L1210 / 0 lymphoid leukemia in mice at a dose of 100 mg/kg per day after treatment 1;9.5/7", "type": "functional", "conditions": "route intraperitoneal"}, "Mus musculus [12]": {"test_system": "Mus musculus", "assay": "Range of survival days for antitumor activity against Ip implanted L1210 / 0 lymphoid leukemia in mice at a dose of 100 mg/kg per day after treatment 1; range is 4-11", "type": "functional", "conditions": "route intraperitoneal"}, "Mus musculus [13]": {"test_system": "Mus musculus", "assay": "Range of survival days for antitumor activity against Ip implanted L1210 / ara-C (II )lymphoid leukemia in mice at a dose of 300 mg/kg per day; range is 7-8", "type": "functional", "conditions": "route intraperitoneal"}, "Mus musculus [14]": {"test_system": "Mus musculus", "assay": "Median survival time for antitumor activity against Ip implanted L1210 / 0 lymphoid leukemia in mice at a dose of 300 mg/kg per day after treatment 1;7.5-8", "conditions": "route intraperitoneal"}, "Mus musculus [15]": {"test_system": "Mus musculus", "assay": "Increase of life span was determined against Ip implanted L1210 / ara-C (II) lymphoid leukemia in mice at a dose of 300 mg/kg per day", "type": "functional", "conditions": "route intraperitoneal"}, "Mus musculus [16]": {"test_system": "Mus musculus", "assay": "Range of survival days for antitumor activity against Ip implanted L1210 / 0 lymphoid leukemia in mice at a dose of 300 mg/kg per day after treatment 1; range is 7-9", "type": "functional", "conditions": "route intraperitoneal"}, "Mus musculus [17]": {"test_system": "Mus musculus", "assay": "Survival time treated/survival time tested (T/C) for antitumor activity against Ip implanted L1210 / ara-C (II) lymphoid leukemia in mice at a dose of 300 mg/kg per day;8/9", "type": "functional", "conditions": "route intraperitoneal"}, "Mus musculus [18]": {"test_system": "Mus musculus", "assay": "Increase of life span was determined against Ip implanted L1210 / 0 lymphoid leukemia in mice at a dose of 300 mg/kg per day after treatment 1", "type": "functional", "conditions": "L1210/0, ip, route intraperitoneal"}}}
{"smiles": "CCCCCCCCCCCCCCCCCCSCC(COP(=O)(O)OP(=O)(O)OC[C@H]1O[C@@H](n2ccc(N)nc2=O)[C@H](O)[C@@H]1O)OC", "note": "(stereo partly drawn)", "values": [{"measurement": "Range of survival days", "setting": "Mus musculus [1]", "result": 4}, {"measurement": "ILS at 200 mg/kg/day", "setting": "Mus musculus [2]", "result": 7, "unit": "%"}, {"measurement": "Range of survival days", "setting": "Mus musculus [3]", "result": 8}, {"measurement": "ILS at 300 mg/kg/day", "setting": "Mus musculus [4]", "result": -11, "unit": "%"}, {"measurement": "T/C", "setting": "Mus musculus [5]", "result": 8}, {"measurement": "T/C", "setting": "Mus musculus [6]", "result": 8}]}
{"smiles": "CCCCCCCCCCCCCCCCCCSCC(COP(=O)(O)OP(=O)(O)OC[C@H]1O[C@@H](n2ccc(N)nc2=O)[C@@H](O)[C@@H]1O)OC", "note": "(mixture of isomers)", "values": [{"measurement": "ILS at 200 mg/kg/day", "setting": "Mus musculus [7]", "result": -14, "unit": "%"}, {"measurement": "Range of survival days", "setting": "Mus musculus [8]", "result": 6}, {"measurement": "T/C", "setting": "Mus musculus [9]", "result": 6}, {"measurement": "ILS at 100 mg/kg/day", "setting": "Mus musculus [10]", "result": 36, "unit": "%"}, {"measurement": "T/C", "setting": "Mus musculus [11]", "result": 9.5}, {"measurement": "Range of survival days", "setting": "Mus musculus [12]", "result": 4}]}
{"smiles": "CCCCCCCCCCCCCCCCCCSCC(COP(=O)(O)OP(=O)(O)OC[C@H]1O[C@@H](n2ccc(N)nc2=O)[C@H](O)[C@@H]1O)OC(=O)CCCCCCCCCCCCCCC", "note": "(mixture of isomers)", "values": [{"measurement": "Range of survival days", "setting": "Mus musculus [13]", "result": 7}, {"measurement": "median survival time", "setting": "Mus musculus [14]", "result": 7.5, "unit": "days"}, {"measurement": "ILS at 300 mg/kg/day", "setting": "Mus musculus [15]", "result": -11, "unit": "%"}, {"measurement": "Range of survival days", "setting": "Mus musculus [16]", "result": 7}, {"measurement": "median survival time", "setting": "Mus musculus [17]", "result": 8, "unit": "days"}, {"measurement": "ILS at 300 mg/kg/day", "setting": "Mus musculus [18]", "result": -6, "unit": "%"}]}
